Like-named read-outs stand apart in the source and are kept apart here. Starred links: 1 amine or outer side, 2 acyl side, 3 side chain; linkers in the order of their positions; H or OH if unused. Non-standard residues stand in square brackets, D forms with d. Residues, ends and D or L forms follow the SMILES beside them. Groups on a side chain read outwards from the residue. *: point of attachment. C18 diacid = O=C(O)CCCCCCCCCCCCCCCCC(=O)*; C16 diacid = O=C(O)CCCCCCCCCCCCCCC(=O)*; γGlu = O=C(O)[C@H](CCC(=O)[*:2])N[*:1]; Glutaryl = O=C(CCCC(=O)[*:2])[*:1]; AEEA = NCCOCCOCC(=O)O; Aib = CC(C)(N)C(=O)O

The target in data set [1] is T1, human GIP receptor (Homo sapiens, UniProt P48546).
T1 construct: host or cells: HEK-293 cells, transient transfection (Lipofectamine 2000), cDNA in pCMV-Script vector
T1 sequence (P48546 22-466): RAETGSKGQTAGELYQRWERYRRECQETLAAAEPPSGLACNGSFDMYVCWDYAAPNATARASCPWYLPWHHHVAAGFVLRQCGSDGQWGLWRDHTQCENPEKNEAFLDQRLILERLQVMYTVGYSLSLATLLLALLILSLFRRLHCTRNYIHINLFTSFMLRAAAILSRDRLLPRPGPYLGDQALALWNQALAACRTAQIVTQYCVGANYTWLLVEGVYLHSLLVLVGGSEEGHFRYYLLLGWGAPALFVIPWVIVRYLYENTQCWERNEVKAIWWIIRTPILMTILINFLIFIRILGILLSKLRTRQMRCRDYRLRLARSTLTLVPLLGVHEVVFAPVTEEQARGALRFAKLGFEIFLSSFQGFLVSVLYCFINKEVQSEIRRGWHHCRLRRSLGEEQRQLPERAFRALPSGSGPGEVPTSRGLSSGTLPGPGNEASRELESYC
The data set can be described thus: cAMP assay Alternative 2 (Gaddum assay), antagonist potency pKb. The data set is classed as cell-based. Here is the method:
HEK293 cells were cultured in 10% CO2 and 37° C. in Dulbecco's modified Eagle's medium supplemented with 10% fetal bovine serum, 2 mM glutamine, 180 units/ml penicillin, and 45 µg/ml streptomycin. Transient transfection with hGIPR for the CisBio assay from Table 2C was performed by using Lipofectamine 2000.
Antagonist potency (pKb) was estimated in a functional setting. The estimated pKb values were calculated from the shifts of the agonist-concentration-response curves in the presence of a single dose of GIP peptide antagonists using the Gaddum equation: pKb=log(DR-1)-log(B), where DR (EC50′/EC50) is the dose ratio calculated from EC50 of GIP1-42 obtained in the presence and absence (EC50) of antagonist, and B is the antagonist concentration used.
The in vitro functional assessment of compounds towards human GIP receptor was determined in HEK-293 cells transiently expressing the receptor. On the day of the assay, cells were resuspended in HBSS buffer (Gibco, 14025-50) supplemented with […] (Gibco, 15630-106), 0.1% Pluronic F-68 (Gibco, 24040-032) and 0.1% casein (Sigma, C4765), and plated in 384-well plates at a density of 3500 cells/well. The GIP peptide analogues of the present disclosure were diluted in HBSS buffer supplemented with 20 mM HEPES, 0.1% pluronic, 0.1% casein and 500 uM IBMX. […] Increasing dose of agonist (GIP1-42) was subsequently added to cells and incubated for additionally 30 min at 37° C. The intracellular cAMP was quantitatively determined using the CisBio cAMP Dynamic 2 HTRF Assay Kit. The assay is based on a competition between native cAMP produced by cells and cAMP labeled with the dye d2 for binding to a cryptate labeled antibody. The specific signal (i.e. energy transfer signal) is inversely proportional to the concentration of cAMP in the sample.
The cAMP-d2 conjugate and the antibody anti-cAMP-Cryptate, both diluted in lysis buffer provided in the kit, were added to the cells according to the manufacturer's protocol. The resulting competitive assay was incubated for 60 minutes at room temperature, and the signal was detected by using a PerkinElmer Envision® instrument with excitation at 320 nm and emission at 665 nm and 620 nm. The HTRF ratio (emission at 665 nm/620 nm*10,000) is inversely proportional to the amount of cAMP present and is converted to nM cAMP per well using a cAMP standard curve.
For orientation: Changes in cAMP serve as a functional read-out for many G protein-coupled receptors.

Data set [2] can be described thus: Physical stability: fibril formation in Thioflavin T (ThT) assay with agitation. The data set is classed as physicochemical. The conditions noted are these: 25° C., agitation. The procedure, abridged: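 Read-out is continuous ThT fluorescence at 486 nm, with lag time taken where signal reaches 10% between pre- and post-transition baselines. Filtered samples (1, 5, 7.5 or 15 mg/ml; pH 7.4 phosphate buffer or NaOH-adjusted water) were stressed at 25° C. by orbital rotation at 300 rpm with one silica bead per well.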

A short description of data set [3]: Solubility by visual inspection of peptide solutions. The data set is classed as physicochemical. The procedure, abridged: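 Solubility scored by eye: clear, colorless appearance after gentle mixing. Samples prepared at 1, 5, 7.5 or 15 mg/ml in either pH 7.4 water (NaOH-adjusted) or 50 mM sodium phosphate buffer, pH 7.4.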
Where [4] appears, read: Table 2C, Gaddum equation, single antagonist dose, HEK-293 hGIPR, read-out: nM (Kb).

Consider `CC[C@H](C)[C@H](NC(=O)[C@H](CCCCN)NC(=O)[C@H](CCC(=O)O)NC(=O)[C@H](CC(C)C)NC(=O)C(C)(C)NC(=O)[C@@H](NC(=O)[C@H](CO)NC(=O)[C@H](Cc1ccc(O)cc1)NC(=O)[C@H](CCC(=O)O)NC(=O)[C@H](CO)NC(=O)[C@@H](NC(=O)[C@H](Cc1ccccc1)NC(=O)[C@@H](NC(=O)CNC(=O)CCCC(=O)O)[C@@H](C)O)[C@@H](C)CC)[C@@H](C)CC)C(=O)N[C@@H](CCCCNC(=O)COCCOCCNC(=O)COCCOCCNC(=O)CC[C@H](NC(=O)CCCCCCCCCCCCCCCCC(=O)O)C(=O)O)C(=O)N[C@@H](CCC(N)=O)C(=O)N[C@@H](CCC(N)=O)C(=O)N[C@@H](CCC(=O)O)C(=O)N[C@@H](Cc1ccccc1)C(=O)N[C@H](C(=O)N[C@@H](CCC(=O)O)C(=O)N[C@@H](Cc1c[nH]c2ccccc12)C(=O)N[C@@H](CC(C)C)C(=O)N[C@@H](CC(C)C)C(=O)N[C@@H](C)C(=O)N[C@@H](CCC(N)=O)C(=O)N[C@@H](CCCCN)C(=O)N1CCC[C@H]1C(=O)N[C@@H](CO)C(=O)N[C@@H](CO)C(=O)NCC(=O)N[C@@H](C)C(=O)N1CCC[C@H]1C(=O)N1CCC[C@H]1C(=O)N1CCC[C@H]1C(=O)N[C@@H](CO)C(=O)O)C(C)C` [AT705] (Glutaryl-GTFISEYSI[Aib]LEKIK([AEEA-AEEA-γGlu-C18 diacid])QQEFVEWLLAQKPSSGAPPPS-OH), for which the Kb in data set [1] (setting [4]) was 0.23 nM. In addition, the “Avr lag time (h)” value in data set [2] (1 mg/ml, TFA, Phosphate (7.4)) is reported as “fnd (Fnd = fibrils not detected within experiment time (96 hours) with agitation.)”. For the same compound, the Visual appearance result in data set [3] (1 mg/ml, TFA, Phosphate (7.4)) was “Clear”.

In turn, `CC[C@H](C)[C@H](NC(=O)[C@H](CCCCN)NC(=O)[C@H](CC(=O)O)NC(=O)[C@H](CCSC)NC(=O)[C@H](C)NC(=O)[C@H](CCCCNC(=O)CCCCCCCCCCCCCCC(=O)O)NC(=O)[C@H](CO)NC(=O)[C@H](Cc1ccc(O)cc1)NC(=O)[C@H](CC(=O)O)NC(=O)[C@H](CO)NC(=O)[C@@H](NC(=O)[C@H](Cc1ccccc1)NC(=O)[C@@H](NC(=O)CNC(=O)[C@@H](N)CCC(=O)O)[C@@H](C)O)[C@@H](C)CC)C(=O)N[C@@H](Cc1c[nH]cn1)C(=O)N[C@@H](CCC(N)=O)C(=O)N[C@@H](CCC(N)=O)C(=O)N[C@@H](CC(=O)O)C(=O)N[C@@H](Cc1ccccc1)C(=O)N[C@H](C(=O)N[C@@H](CCC(=O)O)C(=O)N[C@@H](Cc1c[nH]c2ccccc12)C(=O)N[C@@H](CC(C)C)C(=O)N[C@@H](CC(C)C)C(=O)N[C@@H](C)C(=O)N[C@@H](CCC(N)=O)C(=O)N[C@@H](CCCCN)C(=O)N1CCC[C@H]1C(=O)N[C@@H](CO)C(=O)N[C@@H](CO)C(=O)NCC(=O)N[C@@H](C)C(=O)N1CCC[C@H]1C(=O)N1CCC[C@H]1C(=O)N1CCC[C@H]1C(=O)N[C@@H](CO)C(=O)O)C(C)C` [AT739] (H-EGTFISDYSK(C16 diacid)AMDKIHQQDFVEWLLAQKPSSGAPPPS-OH; N-terminus assumed) had a Kb in data set [1] of 11 nM. In addition, the “Avr lag time (h)” value in data set [2] (1 mg/ml, TFA, Phosphate (7.4)) was “fnd (Fnd = fibrils not detected within experiment time (96 hours) with agitation.)”. In addition, in data set [3] (1 mg/ml, TFA, Phosphate (7.4)), the Visual appearance entry is on record as “Clear”.

With `CC[C@H](C)[C@H](NC(=O)[C@H](CCCCN)NC(=O)[C@H](CCC(=O)O)NC(=O)[C@H](CC(C)C)NC(=O)C(C)(C)NC(=O)[C@@H](NC(=O)[C@H](CO)NC(=O)[C@H](Cc1ccc(O)cc1)NC(=O)[C@H](CCC(=O)O)NC(=O)[C@H](CO)NC(=O)[C@@H](NC(=O)[C@H](Cc1ccccc1)NC(=O)[C@@H](NC(=O)CNC(=O)CCCC(=O)O)[C@@H](C)O)[C@@H](C)CC)[C@@H](C)CC)C(=O)N[C@@H](CCCCNC(=O)COCCOCCNC(=O)COCCOCCNC(=O)CC[C@H](NC(=O)CCCCCCCCCCCCCCCCC(=O)O)C(=O)O)C(=O)N[C@@H](CCC(N)=O)C(=O)N[C@@H](CCC(N)=O)C(=O)N[C@@H](CCC(=O)O)C(=O)N[C@@H](Cc1ccccc1)C(=O)N[C@H](C(=O)N[C@@H](CCC(=O)O)C(=O)N[C@@H](Cc1c[nH]c2ccccc12)C(=O)N[C@@H](CC(C)C)C(=O)N[C@@H](CC(C)C)C(=O)N[C@@H](C)C(=O)N[C@@H](CCC(N)=O)C(=O)N[C@@H](CCCCN)C(=O)N1CCC[C@H]1C(=O)N[C@@H](CO)C(=O)N[C@@H](CO)C(=O)NCC(=O)N[C@@H](C)C(=O)N1CCC[C@H]1C(=O)N1CCC[C@H]1C(=O)N1CCC[C@H]1C(=O)N[C@@H](CO)C(N)=O)C(C)C` [AT713] (Glutaryl-GTFISEYSI[Aib]LEKIK([AEEA-AEEA-γGlu-C18 diacid])QQEFVEWLLAQKPSSGAPPPS-NH2), in data set [1] (setting [4]), the Kb worked out at 0.31 nM. Moreover, the “Avr lag time (h)” value is reported as “fnd (Fnd = fibrils not detected within experiment time (96 hours) with agitation.)” in data set [2] (1 mg/ml, TFA, Phosphate (7.4)); “fnd (Fnd = fibrils not detected within experiment time (96 hours) with agitation.)” in data set [2] (7.5 mg/ml, Na, MilliQ (8)); “fnd (Fnd = fibrils not detected within experiment time (96 hours) with agitation.)” in data set [2] (15 mg/ml, Na, MilliQ (8)). Also, the Visual appearance entry in data set [3] (1 mg/ml, TFA, Phosphate (7.4)) was “Clear”; in data set [3] (7.5 mg/ml, Na, MilliQ (8)) it was “Clear”; in data set [3] (15 mg/ml, Na, MilliQ (8)), “Clear”.

As for `CC[C@H](C)[C@H](NC(=O)[C@H](CO)NC(=O)[C@H](Cc1ccc(O)cc1)NC(=O)[C@H](CC(=O)O)NC(=O)[C@H](CO)NC(=O)[C@@H](NC(=O)[C@H](Cc1ccccc1)NC(=O)[C@@H](NC(=O)CNC(=O)[C@@H](N)CCC(=O)O)[C@@H](C)O)[C@@H](C)CC)C(=O)N[C@@H](C)C(=O)N[C@@H](CCSC)C(=O)N[C@@H](CC(=O)O)C(=O)N[C@@H](CCCCNC(=O)CCCCCCCCCCCCCCC(=O)O)C(=O)N[C@H](C(=O)N[C@@H](Cc1c[nH]cn1)C(=O)N[C@@H](CCC(N)=O)C(=O)N[C@@H](CCC(N)=O)C(=O)N[C@@H](CC(=O)O)C(=O)N[C@@H](Cc1ccccc1)C(=O)N[C@H](C(=O)N[C@@H](CCC(=O)O)C(=O)N[C@@H](Cc1c[nH]c2ccccc12)C(=O)N[C@@H](CC(C)C)C(=O)N[C@@H](CC(C)C)C(=O)N[C@@H](C)C(=O)N[C@@H](CCC(N)=O)C(=O)N[C@@H](CCCCN)C(=O)N1CCC[C@H]1C(=O)N[C@@H](CO)C(=O)N[C@@H](CO)C(=O)NCC(=O)N[C@@H](C)C(=O)N1CCC[C@H]1C(=O)N1CCC[C@H]1C(=O)N1CCC[C@H]1C(=O)N[C@@H](CO)C(=O)O)C(C)C)[C@@H](C)CC` [AT741] (H-EGTFISDYSIAMDK(C16 diacid)IHQQDFVEWLLAQKPSSGAPPPS-OH; N-terminus assumed), the Kb in data set [1] was 11 nM. The “Avr lag time (h)” value in data set [2] (1 mg/ml, TFA, Phosphate (7.4)) is reported as “fnd (Fnd = fibrils not detected within experiment time (96 hours) with agitation.)”. In data set [3] (1 mg/ml, TFA, Phosphate (7.4)), the Visual appearance entry is on record as “Clear”.

The Kb is the equilibrium dissociation constant of an antagonist, usually derived from a functional assay.

For the origin of these results see patent US20230416330A1, “Optimized GIP Peptide Analogues” (Antag Therapeutics ApS, priority 2019, published 2023).
